Where two headings read alike, the source gives them in different places.

The subject of this series is Cynomologus monkeys. How it is done: Preparation of Tetrac for injection. Tetrac from Rhône-Poulenc and Henning Laboratory were compared. Tetrac powder was dissolved in sterile 0.1 N NaOH at 2 mg/ml. This solution was made before the beginning of each treatment period and stored at 4° C. in polypropylene tubes, protected from light. Each solution for injection was prepared daily after dilution in the vehicle (0.9% NaCl) containing 5% monkey serum (v/v), and was stored at room temperature and protected from light, according to the storage conditions of the test substance.
Animals. One male and one female purpose bred Cynomologus monkeys Macaca fascicularis were supplied by Centre de Recherches Primatologiques, Port Louis, Mauritius. […] The animals were individually housed in stainless steel cages and a metallic tray was placed under each cage in order to collect urine. The animals were fed daily with approximately 200 grams each of U.A.R. 107 C pelleted diet (batch Nos. 61106, 61207 and 70317, U.A.R., Villemoisson-sur-Orge, France), distributed about 2 hours after treatment with Tetrac. No contaminants were known to have been present in the diet, drinking water or bedding material at levels which may be expected to have interfered with or prejudiced the outcome of the study.
Weeks 1 to 3 and weeks 7 to 9: the animals received the test substance TETRAC provided either by Rhone-Poulenc or by Henning Laboratories over a three-week period.
Weeks 4 to 6 and weeks 10 to 12: a washout period of three weeks was observed.
Administration of Tetrac. Tetrac was administered via intramuscular injection into the thigh muscle once a day, at approximately the same time each day, several days a week over a three week period. The quantity of tetrac administered to each animal was adjusted according to the most recently recorded body weight. A constant dosage-volume of 0.5 ml/kg was used.
Morbidity and mortality. The animals were checked at least twice a day, for mortality and signs of morbidity.
Body weight. Body weight was recorded for each animal once before the beginning of the treatment period, on the first day of the treatment period, and at least once a week until the end of the study.
Food consumption. Food consumption was estimated for each animal by calculating the difference between the quantity given and that remaining the next morning. This was estimated daily during the week before treatment and throughout the study. Food consumption was expressed as a percentage of the quantity given. Whenever fasting was required, the food was removed at the end of the day and the estimation of consumption was made at that time, food being made available for approximately five hours on that day.

The mark [1] stands for this setting: Female, treatment period (3 weeks, 75 μg/kg/day i.m.).
[2] abbreviates: Female, washout period (3 weeks).
Setting [3] is: Male, treatment period (3 weeks, 75 μg/kg/day i.m.).

Consider `O=C(O)Cc1cc(I)c(Oc2cc(I)c(O)c(I)c2)c(I)c1` [Tetrac from Henning Laboratory, 3,3′,5,5′-tetraiodothyroacetic acid], for which the “Body weight gain (%)” value is “g (+9%)” (Female, treatment period); “g (+3%)” (Female, washout period); “g (+3%)” (Male, treatment period). In addition, the “Food consumption 75%: days of observation/number of days in period” value reads like this: (Female, treatment period) 75%: 13/21; (Female, washout period) 75%: 3/21. For the same molecule, the “Food consumption 100%: days of observation/number of days in period” value by setting is: (Female, treatment period) 100%: 8/21; (Female, washout period) 100%: 18/21; (Male, treatment period) 100%: 21/21; (Male, washout period) 100%: 21/21. Also, the “Food consumption (in words)” value (Female, treatment period) was “slightly lower food consumption”. The Body weight gain entry under setting [1] was “+300 g”; the Body weight gain entry under setting [2] was “+100 g”; the Body weight gain result under setting [3] is listed as “+200 g”; the Body weight gain (Male, washout period (3 weeks)) is recorded as 0 g.
Turning to `O=C(O)Cc1cc(I)c(Oc2cc(I)c(O)c(I)c2)c(I)c1` [Tetrac from Rhône-Poulenc, 3,3′,5,5′-tetraiodothyroacetic acid], the “Body weight gain (%)” value is given as “g (+8%)” (Female, treatment period); “g (+2%)” (Male, treatment period); “g (+2%)” (Male, washout period). Further, the “Food consumption 75%: days of observation/number of days in period” value by setting is: (Female, treatment period) 75%: 7/21; (Female, washout period) 75%: 5/21; (Male, treatment period) 75%: 1/21. Further, the “Food consumption 100%: days of observation/number of days in period” value is, setting by setting: (Female, treatment period) 100%: 14/21; (Female, washout period) 100%: 16/21; (Male, treatment period) 100%: 20/21; (Male, washout period) 100%: 21/21. Moreover, the Body weight gain result is “+300 g” under setting [1]; 0 g under setting [2]; “+100 g” under setting [3]; “+100 g” (Male, washout period (3 weeks)).

The record behind these values is patent US6740680B1, “Pharmaceutical compositions to tetrac and methods of use thereof” (Becton Pharma, Inc., priority 1999, dated 2004).
